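96-well plates; 48 h exposure; 5 concentrations. Endpoints by linear interpolation between flanking doses. Not reached: highest tested concentration assigned. Here, GI50 denotes the concentration required for 50% inhibition of growth.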 The source made the active and inactive calls. No stated cut-off is given here; in the data, active = GI50 up to about 1.1 µM and inactive = higher.
Key:
Experiment in all cases: inhibition of tumour cell growth, NCI panel, 48 h
[1] = tested on: UACC-62
[2] = tested on: IGROV-1
[3] = tested on: OVCAR-8
[4] = tested on: SK-MEL-5
[5] = tested on: EKVX
[6] = tested on: COLO 205
[7] = tested on: NCI-H226
[8] = tested on: NCI-H522
[9] = tested on: SK-OV-3
[10] = tested on: SF-539
[11] = tested on: HT-29
[12] = tested on: UACC-257
[13] = tested on: A549
[14] = tested on: RPMI-8226
[15] = tested on: U-251
[16] = tested on: HCC 2998
[17] = tested on: SK-MEL-28
[18] = tested on: KM12
[19] = tested on: OVCAR-5
[20] = tested on: T47D

Row | SMILES | GI50 [1] | GI50 [2] | GI50 [3] | GI50 [4] | GI50 [5] | GI50 [6] | GI50 [7] | GI50 [8] | GI50 [9] | GI50 [10] | GI50 [11] | GI50 [12] | GI50 [13] | GI50 [14] | GI50 [15] | GI50 [16] | GI50 [17] | GI50 [18] | GI50 [19] | GI50 [20]
1 | O=C1C2ON3c4ccccc4C(=O)C3(c3ccccc3)C2C(=O)N1c1ccccc1 (stereo not given) | > 100 µM (inactive) | > 100 µM (inactive) | > 100 µM (inactive) | > 100 µM (inactive) | > 100 µM (inactive) | > 100 µM (inactive) | > 100 µM (inactive) | > 100 µM (inactive) | > 100 µM (inactive) | > 100 µM (inactive) | > 100 µM (inactive) | > 100 µM (inactive) | > 100 µM (inactive) | > 100 µM (inactive) | > 100 µM (inactive) | > 100 µM (inactive) | > 100 µM (inactive) | – | – | –
2 | CC[n+]1c(/C=C/c2cc(C(=O)OC)n3c2sc2ccccc23)sc2ccccc21 | 0.394 µM (active) | 16.9 µM (inactive) | – | 15 µM (inactive) | 20.7 µM (inactive) | 22.9 µM (inactive) | 23 µM (inactive) | 15.6 µM (inactive) | 17.9 µM (inactive) | 18.2 µM (inactive) | 16.6 µM (inactive) | 17.3 µM (inactive) | 18.8 µM (inactive) | > 10 µM (inactive) | – | 14.6 µM (inactive) | – | 14.7 µM (inactive) | 20.8 µM (inactive) | –
3 | COc1cc(C2C(Cl)C(=O)N2NC(=O)c2ccc(N)cc2)ccc1O (stereo not given) | 64.1 µM (inactive) | 56.8 µM (inactive) | 21.5 µM (inactive) | 84.5 µM (inactive) | 92 µM (inactive) | 20.8 µM (inactive) | 95.7 µM (inactive) | 19.8 µM (inactive) | 60.5 µM (inactive) | 26.5 µM (inactive) | 23.4 µM (inactive) | > 100 µM (inactive) | > 100 µM (inactive) | 78 µM (inactive) | 18 µM (inactive) | 20.2 µM (inactive) | 39.2 µM (inactive) | 25.1 µM (inactive) | 56.6 µM (inactive) | –
4 | On1c(-c2ccccc2)c(-c2ccccc2N2CCCC2)c2ccccc21 | > 100 µM (inactive) | > 100 µM (inactive) | > 100 µM (inactive) | > 100 µM (inactive) | > 100 µM (inactive) | > 100 µM (inactive) | > 100 µM (inactive) | > 100 µM (inactive) | > 100 µM (inactive) | > 100 µM (inactive) | > 100 µM (inactive) | > 100 µM (inactive) | > 100 µM (inactive) | > 100 µM (inactive) | > 100 µM (inactive) | > 100 µM (inactive) | > 100 µM (inactive) | > 100 µM (inactive) | > 100 µM (inactive) | –
5 | CN(C)c1ccc(/C=N/C23CC4CC(CC(C4)C2)C3)cc1 | > 100 µM (inactive) | > 100 µM (inactive) | > 100 µM (inactive) | > 10 µM (inactive) | > 100 µM (inactive) | > 100 µM (inactive) | > 100 µM (inactive) | > 100 µM (inactive) | > 100 µM (inactive) | > 100 µM (inactive) | > 100 µM (inactive) | > 100 µM (inactive) | > 100 µM (inactive) | > 100 µM (inactive) | > 100 µM (inactive) | > 100 µM (inactive) | > 100 µM (inactive) | > 100 µM (inactive) | > 100 µM (inactive) | –
6 | C=CC1(CC)/C(=N\O)C(CC)(CC)C(=O)N1O (stereo not given) | > 100 µM (inactive) | > 100 µM (inactive) | > 100 µM (inactive) | > 100 µM (inactive) | > 100 µM (inactive) | > 100 µM (inactive) | > 100 µM (inactive) | > 100 µM (inactive) | > 100 µM (inactive) | > 100 µM (inactive) | > 100 µM (inactive) | > 100 µM (inactive) | > 100 µM (inactive) | > 100 µM (inactive) | > 100 µM (inactive) | > 100 µM (inactive) | > 100 µM (inactive) | > 100 µM (inactive) | > 100 µM (inactive) | –
7 | O=c1ccn([C@H]2CSC[C@@H](CO)C2)c(=O)[nH]1 | > 100 µM (inactive) | > 100 µM (inactive) | > 100 µM (inactive) | > 100 µM (inactive) | > 100 µM (inactive) | – | > 100 µM (inactive) | > 100 µM (inactive) | > 100 µM (inactive) | > 100 µM (inactive) | > 100 µM (inactive) | > 100 µM (inactive) | > 100 µM (inactive) | > 100 µM (inactive) | > 100 µM (inactive) | > 100 µM (inactive) | > 100 µM (inactive) | > 100 µM (inactive) | > 100 µM (inactive) | –
8 | Cc1c(-c2nnc(-c3ccccc3)o2)c(=O)n(-c2ccccc2)n1C | > 100 µM (inactive) | > 100 µM (inactive) | > 100 µM (inactive) | – | > 100 µM (inactive) | > 100 µM (inactive) | > 100 µM (inactive) | > 100 µM (inactive) | > 100 µM (inactive) | > 100 µM (inactive) | > 100 µM (inactive) | > 100 µM (inactive) | > 100 µM (inactive) | > 100 µM (inactive) | > 100 µM (inactive) | > 100 µM (inactive) | > 100 µM (inactive) | > 100 µM (inactive) | – | –
9 | Brc1ccc(N2C[N+](c3ccc(Br)cc3)=NC(c3ccccc3)=N2)cc1.[O-][Cl+3]([O-])([O-])[O-] | > 100 µM (inactive) | > 100 µM (inactive) | > 100 µM (inactive) | 76.4 µM (inactive) | 33.9 µM (inactive) | 63.4 µM (inactive) | > 100 µM (inactive) | 36 µM (inactive) | > 100 µM (inactive) | > 100 µM (inactive) | 36.7 µM (inactive) | > 100 µM (inactive) | 75.9 µM (inactive) | 49.9 µM (inactive) | > 100 µM (inactive) | > 100 µM (inactive) | > 100 µM (inactive) | > 100 µM (inactive) | > 100 µM (inactive) | –
10 | CC(=O)n1c2ccc(Br)cc2c2nc3ccccc3nc21 | > 100 µM (inactive) | > 100 µM (inactive) | > 100 µM (inactive) | > 100 µM (inactive) | > 100 µM (inactive) | > 100 µM (inactive) | > 100 µM (inactive) | > 100 µM (inactive) | – | > 100 µM (inactive) | > 100 µM (inactive) | > 100 µM (inactive) | – | > 100 µM (inactive) | > 100 µM (inactive) | > 100 µM (inactive) | > 100 µM (inactive) | > 100 µM (inactive) | > 100 µM (inactive) | –
11 | COCN1C(=O)[C@@H]2CCCN2C(=O)c2cc([N+](=O)[O-])ccc21 | 85.7 µM (inactive) | 35.5 µM (inactive) | > 100 µM (inactive) | 70.1 µM (inactive) | > 100 µM (inactive) | 81.3 µM (inactive) | 2.21 µM (inactive) | 16 µM (inactive) | 44.7 µM (inactive) | > 100 µM (inactive) | 71.9 µM (inactive) | > 100 µM (inactive) | 88.3 µM (inactive) | – | 42 µM (inactive) | – | > 100 µM (inactive) | > 100 µM (inactive) | 52.7 µM (inactive) | 45.7 µM (inactive)
12 | O=c1cc(N2CCCC2)[nH]c(=O)n1Cc1ccccc1 | – | > 100 µM (inactive) | > 100 µM (inactive) | > 100 µM (inactive) | > 100 µM (inactive) | > 100 µM (inactive) | 55.3 µM (inactive) | > 100 µM (inactive) | – | > 100 µM (inactive) | > 100 µM (inactive) | > 100 µM (inactive) | > 100 µM (inactive) | > 100 µM (inactive) | > 100 µM (inactive) | 8.55 µM (inactive) | > 100 µM (inactive) | > 100 µM (inactive) | > 100 µM (inactive) | –
13 | CN1C2(c3ccccc3)c3c(-c4ccccc4)sc(-c4ccccc4)c3C1(c1ccccc1)C1C(=O)N(c3ccccc3)C(=O)C12 (stereo not given) | > 100 µM (inactive) | > 100 µM (inactive) | > 100 µM (inactive) | > 100 µM (inactive) | > 100 µM (inactive) | > 100 µM (inactive) | > 100 µM (inactive) | > 100 µM (inactive) | > 100 µM (inactive) | > 100 µM (inactive) | > 100 µM (inactive) | > 100 µM (inactive) | > 100 µM (inactive) | > 100 µM (inactive) | > 100 µM (inactive) | > 100 µM (inactive) | > 100 µM (inactive) | > 100 µM (inactive) | > 100 µM (inactive) | –
14 | O=CC1C[C@@H](N2C(=O)O[C@@H](c3ccccc3)[C@H]2c2ccccc2)[C@@H]1COCc1ccccc1 (stereo not given in full) | 16.8 µM (inactive) | 18.2 µM (inactive) | 21.2 µM (inactive) | 15.2 µM (inactive) | 20 µM (inactive) | 19.9 µM (inactive) | 20.2 µM (inactive) | 16.4 µM (inactive) | – | 18.7 µM (inactive) | 17.9 µM (inactive) | 17.9 µM (inactive) | 29.9 µM (inactive) | 17.9 µM (inactive) | 16.6 µM (inactive) | 15 µM (inactive) | 20 µM (inactive) | 43.5 µM (inactive) | 22.4 µM (inactive) | –
15 | O=C(O)c1cc2ccccc2oc1=O [COUMARIN-3-CARBOXYLIC ACID] | > 100 µM (inactive) | > 100 µM (inactive) | > 100 µM (inactive) | > 100 µM (inactive) | > 100 µM (inactive) | > 100 µM (inactive) | > 100 µM (inactive) | > 100 µM (inactive) | – | > 100 µM (inactive) | > 100 µM (inactive) | > 100 µM (inactive) | > 100 µM (inactive) | > 100 µM (inactive) | > 100 µM (inactive) | > 100 µM (inactive) | > 100 µM (inactive) | > 100 µM (inactive) | > 100 µM (inactive) | –

Reference: ChEMBL document CHEMBL1201862, “PubChem BioAssay data set” (2004)
